Where “and” joins values, the source holds several entries; their conditions need not be identical. Equal values may be shown once.

The data set is described as follows: Biliary excretion after intravenous administration in bile duct-cannulated rats. It is filed as in vivo, Wistar ST rats. As to the method: SPF Wistar ST rats (6 weeks of age, male, 180 ± 20 g of body weight) were purchased from Japan SLC Inc. (Hamamatsu, Japan). The rats were housed in an air-conditioned room at 22 ± 2°C under cycles of 12 hours dark and 12 hours light and given free access to a commercial diet and water for a week. The rats were then fasted for over 16 hours before the experiments. The present study was approved by the Animal Care and Use Committee at Kagawa University, and the rat treatment conformed to the Rules of Animal Experiments at Kagawa University. After fasting, the rats were cannulated with a polyethylene tube (PE-50; 0.58 mm I.D., 0.965 mm O.D.) into the jugular vein, portal vein, or bile duct under anesthesia with isoflurane inhalation using a WP-SAA01 (LMS Co., Ltd., Tokyo, Japan). A small hole was made in the vein or duct using pointed scissors and cannulated with the polyethylene tube. After inserting the tube, it was fixed at the edge of the vein or duct. The jugular vein and portal vein cannulas penetrated under the skin and were then tied at the back of the rats, and the bile duct cannula was tied at the abdomen of the rats. Bile duct-cannulated rats were then restrained in a Bollman cage (Natsume Seisakusho Co., Ltd., Tokyo, Japan). Before further experiments, the rats were allowed to recover from anesthesia. 3,4-[…] (300 mg/kg body weight; 936.51 μmol/kg) dissolved in 50% polyethylene glycol aqueous solution was administered orally via a stomach tube to the portal vein cannulated rats. Blood samples (450 μL) were then collected using a heparinized syringe attached to the cannula before administration and 5, 15, 30, 60, 120, and 240 min after administration. Urine was also collected before administration and 0 to 2 h and 2 to 4 h after administration. For intravenous administration, 3,4-[…] (10 mg/kg; 31.22 μmol/kg) was injected into the jugular vein, and blood (450 μL) was collected using a heparinized syringe before administration and 5, 15, 30, 60, 120, and 240 min after administration via the jugular vein cannula. The blood (450 μL) collected was immediately cooled on ice and centrifuged at 15,000 rpm for 5 min at 4°C to obtain over 200 μL plasma. Urine was also collected before administration and 0 to 2 h and 2 to 4 h after administration. Bile was collected via the bile duct cannula before administration and 0 to 2 h and 2 to 4 h after intravenous administration. The collected plasma, urine, and bile were immediately stored in an ice box until further analyses. HT (oral administration: 100 mg/kg; 648.66 μmol/kg, intravenous administration: 10 mg/kg; 64.87 μmol/kg) and Ole (oral administration: 300 mg/kg; 555.02 μmol/kg, intravenous administration: 10 mg/kg; 18.50 μmol/kg) were investigated using the same method as described above. Metabolites were deconjugated by using β-glucuronidase (500 U) and sulfatase (50 U) in 50 μL 625 mM MOPS (pH 6.8), which was added to 200 μL of plasma, urine, or bile. The mixture was incubated for 45 min at 37°C and subjected to extraction using QuEChERS [33]. […] Shimadzu, Kyoto, Japan) equipped with a Shim-pack XR-ODS column (3.0 mm I.D. × 100 mm; Shimadzu, Kyoto, Japan) at 40°C with a mobile phase of 0.5% TFA-1% acetonitrile aqueous solution (A) and 0.5% TFA-75% acetonitrile aqueous solution (B). The elution conditions are described as follows: isocratic elution of 0% B was maintained for 4.0 min; linear gradient 0 to 4% B, 4.0-4.5 min; linear gradient 4.0-16.0% B, 4.5-16.0 min; linear gradient 16.0-100% B, 16.0-25.0 min; isocratic elution of 100% B, 25.0-26.0 min; and linear gradient 100 to 0% B, 26.0-26.1 min, with a flow rate of 0.5 mL/min. Injection volume was 50 μL. All eluted peaks were detected at 279 nm with a diode array detector (SPD-M20A; Shimadzu, Kyoto, Japan).

On to `C/C=C1/[C@H](O[C@@H]2O[C@H](CO)[C@@H](O)[C@H](O)[C@H]2O)OC=C(C(=O)OC)[C@H]1CC(=O)OCCc1ccc(O)c(O)c1` [Oleuropein, reference compound], for which the Ole in bile was 3.22 % of dose.
As to `OCCc1ccc(O)c(O)c1` [Hydroxytyrosol, 2-(3,4-dihydroxyphenyl) ethyl alcohol, reference compound], the HT in bile is 0.079 % of dose.
As to `CC=C(C=O)C(CC=O)CC(=O)OCCc1ccc(O)c(O)c1` (stereo not drawn) [3,4-DHPEA-EDA, 3,4-dihydroxyphenylethyl elenolate dialdehydic form], the “Detection of parent 3,4-DHPEA-EDA in bile” value is reported as “not observed”; the HT in bile is 0.174 % of dose and 0.17 % of dose; the HVA in bile was 0.048 % of dose and 0.05 % of dose; the HVAOH in bile is 0.255 % of dose and 0.26 % of dose.
